Results: patent US4463005A, “Bicyclic guanidines” (Imperial Chemical Industries PLC, priority 1981, dated 1984)

Columns and labels:
conscious mice = assay: intravenous toxicity in conscious mice; assay type: in vivo; conditions: four conscious mice, one hundred times the dose giving approximate 50% inhibition of gastric secretion in the anaesthetised rat
Experimental: (§1) No overt toxicity or side effects were noted during the rat or dog tests. The compound 4-[3-(4-[2-(2,2,2-trifluoroethyl)guanidino]pyrimid-2-ylthio)propyl]-imidazole was administered intravenously to groups of two anaesthetised rats and four conscious mice at doses which were respectively ten times and one hundred times the dose, in mg./kg., which produced an approximate 50% inhibition of gastric secretion in the anaesthetised rat.

anaesthetised rats = assay: intravenous toxicity in anaesthetised rats; assay type: in vivo; conditions: two anaesthetised rats, ten times the dose giving approximate 50% inhibition of gastric secretion in the anaesthetised rat
Experimental: as §1

`NC(=NCC(F)(F)F)Nc1ccnc(SCCCc2c[nH]cn2)n1.O=C(O)/C=C\C(=O)O` [Example 2, 4-[3-(4-[2-(2,2,2-trifluoroethyl)guanidino]pyrimid-2-ylthio)propyl]imidazole dihydrogen maleate] was tested, and the toxic symptoms (conscious mice) was “No toxic symptoms were noted” and the toxic symptoms (anaesthetised rats) was “No toxic symptoms were noted”.
